From patent US20240343835A1, “COVALENT HETEROBIVALENT ANTIBODY INHIBITORS AND LIGANDS” (UNIVERSITY OF NOTRE DAME DU LAC, priority 2015, published 2024) come the findings set out here.

Ends that are not written are not given here.

For one experiment, the target named is IgE^dansyl. The experiment can be described thus: Fluorescence quenching binding of dansyl molecules to IgE^dansyl. To be noted: dissociation constants for hapten-Napht conjugates. As for the experimental part:
To determine binding of HBI molecules to respective antibodies, we observed the quenching of tryptophan resides using a method previously described (Junutula JR, et al., Nat. Biotechnol. 2008; 26 (8): 925-932). Briefly, either IgE^dansyl or IgG^Penicillin was diluted into a non-binding 96-well dish at 40 nM in PBS. Then, HBI molecules which contained either a dansyl or DNP group were titrated into well and fluorescence (Ex. 280 nm, Em. 335) was observed using a SpectraMax M2 spectrophotometer. PBS and free tryptamine diluted to similar initial fluorescence values were used as controls to account for HBI fluorescence and non-specific quenching respectively.

Experiment [1] addresses trastuzumab. The experiment in a line: Fluorescence quenching assay with trastuzumab. The format is binding. Particulars: for Kd: fluorescence quenching, DNP-tagged ligands. As for the experimental part: The binding constants (Kd) of monovalent ABS (trastuzumab binding peptide), NBS (naphthalene), and heterobivalent ligand (trast-napht) were determined using fluorescence quenching assay as previously described (Handlogten MW, et al., Chem Biol. 2011; 18 (9): 1179-1188). Briefly, ligands were titrated into trastuzumab (30 nM) as well as PBS and Indole-3-butyric acid (IBA) to exclude the effect of nonspecific interactions between DNP and tryptophan. Since DNP absorbs light at 335 nm and tryptophan emits light at 335 nm, the fluorescence of tryptophan is quenched by DNP. The fluorescence of tryptophan was read by SpectraMax M5 plate reader (Molecular Devices) at λex=280 nm and λem=335 nm with various concentrations of ligands. The fluorescence signals dropped upon titration of ligands and apparent binding constants were calculated using a Hill's curve fit in OriginPro 2015.

Experiment [2] deals with trastuzumab. The experiment in a line: Direct ELISA for selective binding of cHBL to trastuzumab. Particulars: 8 hours, 37° C., pH 7.4. How it is done: ELISA was used to confirm selective binding of trast-cHBL to trastuzumab. […] FITC also reacted with trastuzumab at the same conditions except for pH; they were incubated in either PBS or carbonate-bicarbonate buffer. Trastuzumab without any covalent ligands was used as a negative control (pH 7.4). After an 8-hour reaction, all molecules were purified using Amicon Ultra-0.5 mL Centrifugal Filters to remove the unbound covalent ligands. Concentration of trastuzumab was determined by SpectraMax M5 plate reader. For ELISA, 96 well high-binding assay plate was coated with trastuzumab (0.5 nM in carbonate-bicarbonate buffer) overnight at 4° C. refrigerator. The next morning, the wells were washed with a washing buffer (0.05% Tween 20 in PBS) using AquaMax 2000 plate automatic washer (Molecular Devices) to remove unbound trastuzumab and blocked with blocking buffer (5% (w/v) BSA and 0.1% (v/v) Tween 20 in PBS) for 1 hour at room temperature. After 1 hour, the wells were washed and then incubated with goat anti-FITC IgG-HRP conjugate (1:20,000 in blocking buffer) for 1 hour. Amplex Red Hydrogen Peroxide/Peroxidase Assay kit was used to initiate enzymatic reaction and the fluorescence (λex=570 nm and λem=592 nm) was read by SpectraMax M5 plate reader.

Another experiment has as its system NBS of trastuzumab. The experiment in a line: Competitive ELISA of naphthalene-biotin binding to the NBS. Particulars: 2 and 10 μM, p<0.01. How it is done:
The specificity of naphthalene to NBS of IgG was confirmed using UV photo-cross-linking method and competitive sandwich ELISA. The wells of high binding plate were coated with goat-derived anti-human IgGs (1 nM in carbonate-bicarbonate buffer) overnight at 4° C. Trastuzumab (100 nM in PBS) prepared for ELISA described above was incubated with naphthalene-EG11-biotin (25 μM in PBS) for 1 hour at room temperature. PBS with only naphthalene-EG11-biotin was used as a negative control to normalize the binding curve. After 1 hour incubation, the molecules were exposed to UV light (1 J/cm^2) in a Spectroline UV select Series Cross-linker (Spectronics) to induce covalent photo-cross-linking of naphthalene to unbound NBS. The molecules were spun and 2 nM of the molecules were prepared in the blocking buffer. The wells coated with goat anti-human IgGs were washed and blocked with the blocking buffer for 1 hour. The wells were washed followed by incubation with the UV photo-cross-linked trastuzumab (2 nM) for 1 hour. […] An Amplex red assay kit was used to detect the fluorescence signals from the specific binding of naphthalene to NBS induced by UV photo-cross-linking. Since cHBL contains naphthalene, blocked NBS of trastuzumab is expected not to be photo-cross-linked to naphthalene-EGn-biotin, leading to relatively lower signals of fluorescence in the presence of cHBL.

Experiment [3] concerns trastuzumab. The experiment can be described thus: Western blot of ITC covalent conjugation to trastuzumab chains. The format is biochemical. Particulars: reducing gel. How it is done: ITC conjugation to active lysine on either light chain […] proximal to NBS was confirmed by western blot as previously described (Alves NJ, et al., Langmuir. 2012; 28 (25): 9640-9648). The samples (20 nM in 1×SDS reducing buffer) were run on a 10% SDS-PAGE gel at 110 V for 50 min in the presence of a Tris-glycine running buffer. The samples were then transferred to a nitrocellulose membrane (Bio-Rad) at 90 V for 90 min in a 20% methanol transfer buffer. The membrane was blocked with a blocking buffer (5% (w/v) non-fat dry milk in Tris buffered Saline with 0.05% Tween 20 (TBS-T)) for 1 hour. After 1 hour, the membrane was washed once with TBS-T and followed by incubation with HRP-conjugated goat anti-FITC IgG (1:20,000 in blocking buffer) for 45 min. The membrane was washed with 3×TBS-T for 10 min to remove the unbound secondary detection antibodies and subsequently incubated with chemiluminescent HRP substrate for 5 min to detect the location at which lysine on either heavy or light chain is conjugated to cHBL molecules. A second SDS-PAGE gel was run concurrently and stained in Commassie blue staining solution (0.15% Coomassie R-250 (EMD chemicals), 10% acetic acid and 20% methanol in DI water) and destained in destaining solution (10% acetic acid, methanol, and 80% DI water) to confirm that all the proteins were transferred to the membrane. […]

Experiment [4] concerns HER2/neu receptor on BT474 cells. The experiment in a line: Cellular binding assay by flow cytometry with cHBL-tagged trastuzumab. The format is cell-based. As for the experimental part: Inhibition of trastuzumab by binding of trast-cHBL was confirmed by cellular binding assay with HER2-overexpressed breast and ovarian cancer cell lines (BT474 and SKOV3) using a Guava EasyCyte 8HT flow cytometer (Millipore). 0.5 mL of 50000 cells/mL were cultured on 2-well tissue culture plates overnight. The plate was kept on ice for 30 min to avoid receptor internalization. The wells were washed with a blocking buffer (1.5% BSA in PBS) and incubated with trastuzumab that had been previously incubated with trast-cHBL at various concentrations in the same fashion as the ELISA experiments for 1 hour on ice. The wells were washed once and incubated with Alexa Fluor 647-conjugated goat anti-human IgG (1:500 in blocking buffer) for 1 hour on ice. The wells were washed once with blocking buffer and the cells were gently scraped to run flow cytometer. Green (FITC) and Red2 (Alexa fluorophore with λem=667 nm) fluorescence were read to confirm trast-cHBL binding. Trastuzumab without any ligands and trastuzumab—FITC conjugate were used as positive controls and the cells with Alexa Flour 647-conjugated secondary antibody and without trastuzumab were used as negative controls.

Experiment [5] deals with nucleotide binding site (NBS) of IgEs. The experiment can be described thus: Fluorescence quenching binding of NBS ligand. To be noted: monovalent affinity.

The molecule Dansyl displayed a Kd at IgE^dansyl of 29.9 ± 10 nM.

“Trast-Napht-DNP: trastuzumab binding peptide conjugated to napht with ethylene glycol spacer, DNP tagged (LLGPYELWELSH; also: conjugated to napht with ethylene glycol spacer, DNP tagged)”: the Kd at trastuzumab [1] amounted to 46 ± 6 nM; at trastuzumab [1] (listed as Trast-napht-DNP), 46.6 ± 6 nM. Further, the “fold increase in observed affinity on conjugation to napht” value in the experiment on trastuzumab [1] (napht with ethylene glycol spacer) is “over 4 fold”.

“Rituximab-cHBL: orthogonal cHBL with rituximab binding peptide WPRWLEN”: the “binding to trastuzumab (direct ELISA)” value with trastuzumab [2] is given as “not selective to trastuzumab up to 20 μM”.

As for “Trast-cHBL: trastuzumab-specific cHBL with peptide LLGPYELWELSH, napht, ITC and fluorescein tag (not fully specified; also: cHBL with napht, ITC and fluorescein tag)”, the “naphthalene-biotin binding after cHBL incubation” value in the experiment with NBS of trastuzumab was “significantly less naphthalene binding”. Also, in the experiment on trastuzumab [2], the “binding to trastuzumab (direct ELISA)” value is “significant increase in binding over trastuzumab-ITC at 1 μM”. Further, the antibody chain conjugated entry with trastuzumab [3] is recorded as “preferentially conjugated to light chain”. Besides, the “cHBL concentration at which FITC signal saturates” value in experiment [4] came to 2 µM. Further, in experiment [4] (1 μM cHBL), the “FITC signal, percent of maximum” value is on record as “approximately 50%” and the “HER2 binding (Alexa 647 signal)” value is recorded as “no significant reduction in HER2 binding”. Also, in experiment [4] (2 μM cHBL), the “HER2 binding retained (Alexa 647 signal)” value is given as “approximately 75%”. The “HER2 binding (Alexa 647 signal)” value in experiment [4] (10 μM cHBL) is “HER2 binding drops drastically”.

Consider `O=C(O)Cc1ccc2ccccc2c1` [2-naphteleneacetic acid], for which the Kd came out at 1800 ± 300 nM in experiment [5] and 2000 nM in experiment [5] (listed as 2-naphthaleneacetic acid).

At trastuzumab [1], “LLGPYELWELSH [Trastuzumab binding peptide, reference compound]” showed a Kd of 200 ± 14 nM.

Consider “Trast-ITC: trast-cHBL molecule where the napht moiety was omitted (LLGPYELWELSH)”, for which the antibody chain conjugated entry in the experiment with trastuzumab [3] is recorded as “conjugated nearly equally to either heavy (50 kDa) or light chain”.

The molecule “Trast-DNP: trastuzumab binding peptide tagged with DNP (LLGPYELWELSH; also: tagged with DNP)” came in with a Kd on trastuzumab [1] of 200 ± 14 nM.
